Measured values taken from patent publication US8252337B2, “Charged mesoporous silica nanoparticle-based drug delivery system for controlled release and enhanced bioavailability” (National Health Research Institutes, priority 2008, dated 2012).

Assay: Saturated aqueous sulfasalazine solution
Format: physicochemical
Settings: in H2O
Procedure: Sulfasalazine-Loaded MSN-TA Samples: A saturated aqueous sulfasalazine solution was prepared by dissolving 0.5 g of sulfasalazine in 1 L of H2O, stirred for 6 h, and filtered through a […] cellulose acetate membrane to remove the residual solids. […] Sulfasalazine was adsorbed onto MSN-TA samples by adding 10 mg of MSN-TA samples into 10 mL of the above saturated sulfasalazine solution. The mixture was stirred at 800 rpm for 4 h. The particles were then washed with deionized water and centrifuged for 20 min at 12 000 rpm. The supernatant was analyzed with a UV-Vis spectrometer. The amount of Sulfasalazine adsorbed onto nanoparticles was determined by measuring the decrease in absorption at 360 nm. The loading percentage of sulfasalazine onto MSN-TA-4 was about 1.7%.

## O=C(O)c1cc(/N=N/c2ccc(S(=O)(=O)Nc3ccccn3)cc2)ccc1O [sulfasalazine]
  pH of saturated sulfasalazine solution: 5.4
